Test results published in patent publication US7897568B2, “Compositions for treatment of cancer” (priority 2006, dated 2011).
Where a SMILES comes first, the peptide text is derived from it. Where no end group is shown, it is not given here.

Columns and labels:
[1] = biological target: GST (Schistosoma japonicum, UniProt P08515); test: Surface plasmon resonance control with GST as analyte; format: binding; conditions: SPR, GST as the analyte
Method: Kinetics of the SNCG-ANK interaction were determined. […] Sensograms were deconvoluted globally, using a simultaneous fit for both association (ka, M^−1s^−1) and dissociation (kd, s^−1).
The binding interaction between the ANK peptide and GST-SNCG was examined in real time using a BIACORE 3000 biosensor system (Biacore Inc., NJ). Because of the relatively large amount required in this experiment, GST-SNCG, which expresses at least 2 times better than SNCG, was used. […] The changes in the refractive index at the sensor chip surface with respect to time are scaled in resonance units (RU). For proteins, every 1000 RU corresponds to a surface mass change of ˜1 ng/mm^2. All experiments were performed at 25° C. using research grade carboxymethylated dextran matrix (CM5) sensor chips (Biacore Inc.). […] Prior to all analyses the GST-SNCG and ANK peptide preparations were dialyzed against the running buffer to minimize bulk effects. Blank analyte injections (running buffer only) were subtracted from the specific binding isotherms to further minimize instrument noise.

[2] = biological target: T1, SNCG (Homo sapiens, UniProt O76070); test: Far-UV circular dichroism of SNCG titrated with ANK peptide, calculated secondary structure; parameters: The SNCG coding region was amplified from the human cDNA clone; GST (N, cleaved yes); made in house; host or cells: Escherichia coli BL21 (DE3)
Method: FIGS. 1B and 1C provide far-UV circular dichroism (CD) spectra of SNCG (10 μM) with titration of ANK peptide […] (SEQ ID NO:1) at concentrations of 2 μM, 12 μM and 24 μM (FIG. 1B) and 25 μM, 50 μM and 100 μM (FIG. 1C). […] Spectra patterns correspond to random coil structures.
Titration of SNCG with the ANK peptide also gave rise to far-UV spectra characteristic of an unfolded protein (FIG. 1B) and produced no significant changes in calculated secondary structure.
The SNCG-ANK interaction was monitored using far-UV CD recorded on a rapid-scanning monochromator fitted with a CD module (RSM 1000, Olis Inc., Bogart Ga.). Samples containing 0.145 mg/ml SNCG were dialyzed into 5 mM sodium phosphate buffer, pH 7.0 for data acquisition. Spectra were averaged from 12 scans recorded at 25° C. The baseline was corrected by subtracting the spectra measured under identical conditions for the remaining buffer after dialysis. Peptide was reconstituted into flow-through buffer after dialysis and used for titration. Molar ellipticity [θ] was calculated according to the formula [θ]=[θ]×100/(nlc), where n represents the number of amino acids in the protein, l represents the path length of the cuvette in centimeters and c represents the concentration in millimolar. Percentage secondary structure was calculated using the web-based program CDNN (Bohm et al. Protein Eng. 1992 5:191-195).

[3] = biological target: T1, SNCG; test: ANS fluorescence of the SNCG-ANK peptide complex; format: binding; parameters: The SNCG coding region was amplified from the human cDNA clone; GST (N, cleaved yes); made in house; host or cells: Escherichia coli BL21 (DE3); conditions: SNCG 30 μM, ANK peptide 240 μM, 0.02 mg/mL ANS; versus peptide only
Excerpt: ANS fluorescence was also utilized to study the conformational properties of SNCG and the SNCG-ANK peptide interaction (See FIG. 2C). Changes in ANS fluorescence intensity are frequently used to monitor formation of partially folded intermediates during protein unfolding and refolding (Semisotnov et al. Biopolymers 1991 31:119-128), as well as to analyze the hydrophobic surfaces of proteins (Stryer, L. J. Mol. Biol. 1965 13:482-495). The interaction of ANS with solvent-exposed hydrophobic clusters is accompanied by a considerable increase in the dye fluorescence intensity and a pronounced blue shift of the fluorescence maximum. […] The addition of ANK peptide induced significant changes in ANS fluorescence properties, including a dramatic increase in the fluorescence intensity and a blue shift in λmax. […] Importantly, formation of the SNCG-ANK complex is accompanied by an approximate 20% decrease in ANS fluorescence intensity of only peptide which is affected by the presence of SNCG, confirming the interaction between SNCG and ANK peptide.

[4] = biological target: T2, SNCG-BubR1 interaction (Homo sapiens, UniProt O76070); test: Co-immunoprecipitation of SNCG and myc-BubR1 with or without EGFP-ANK in COS7 cells; format: cell-based; conditions: COS7 cells expressing BubR1, SNCG and EGFP-ANK
T2 construct: expressed in transfected cells; host or cells: COS7
T2 sequence (O76070 whole entry): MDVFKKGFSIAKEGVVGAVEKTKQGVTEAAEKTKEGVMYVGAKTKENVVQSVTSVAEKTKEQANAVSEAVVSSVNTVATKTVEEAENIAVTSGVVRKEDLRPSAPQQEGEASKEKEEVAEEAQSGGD

T1 sequence (O76070 whole entry): as above
GST, sequence (P08515 whole entry): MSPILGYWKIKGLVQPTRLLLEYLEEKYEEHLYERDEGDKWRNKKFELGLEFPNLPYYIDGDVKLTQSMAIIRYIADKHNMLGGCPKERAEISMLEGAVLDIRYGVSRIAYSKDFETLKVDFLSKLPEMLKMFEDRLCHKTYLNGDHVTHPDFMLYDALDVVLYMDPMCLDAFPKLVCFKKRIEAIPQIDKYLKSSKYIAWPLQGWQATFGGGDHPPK

Molecule | binding of GST analyte to immobilized ANK peptide [1] | Structure (%) Antiparallel ([2]; SNCG + 2.0 μM ANK Peptide) | Structure (%) Beta-Turn ([2]; SNCG + 2.0 μM ANK Peptide) | Structure (%) Helix ([2]; SNCG + 2.0 μM ANK Peptide) | Structure (%) Parallel ([2]; SNCG + 2.0 μM ANK Peptide) | Structure (%) Random Coil ([2]; SNCG + 2.0 μM ANK Peptide) | Structure (%) Antiparallel ([2]; SNCG + 12 μM ANK Peptide) | Structure (%) Beta-Turn ([2]; SNCG + 12 μM ANK Peptide) | Structure (%) Helix ([2]; SNCG + 12 μM ANK Peptide) | Structure (%) Parallel ([2]; SNCG + 12 μM ANK Peptide) | Structure (%) Random Coil ([2]; SNCG + 12 μM ANK Peptide) | Structure (%) Antiparallel ([2]; SNCG + 24 μM ANK Peptide) | Structure (%) Beta-Turn ([2]; SNCG + 24 μM ANK Peptide) | Structure (%) Helix ([2]; SNCG + 24 μM ANK Peptide) | Structure (%) Parallel ([2]; SNCG + 24 μM ANK Peptide) | Structure (%) Random Coil ([2]; SNCG + 24 μM ANK Peptide) | decrease in ANS fluorescence intensity on formation of the SNCG-ANK complex [3] | myc-BubR1 signal in anti-SNCG IP complex [4]
CC[C@H](C)[C@H](NC(=O)[C@H](CS)NC(=O)CNC(=O)[C@H](CC(C)C)NC(=O)[C@H](Cc1c[nH]cn1)NC(=O)CNC(=O)[C@H](Cc1c[nH]cn1)NC(=O)[C@H](CCC(N)=O)NC(=O)[C@H](CO)NC(=O)[C@H](C)NC(=O)[C@@H](NC(=O)[C@H](Cc1c[nH]cn1)NC(=O)[C@H](CC(C)C)NC(=O)[C@H](C)NC(=O)[C@H](CO)NC(=O)[C@H](CC(N)=O)NC(=O)CNC(=O)[C@H](CCCCN)NC(C)=O)C(C)C)C(=O)N[C@@H](CCC(N)=O)C(=O)N[C@H](C(=O)N[C@@H](CC(C)C)C(=O)N[C@H](C(=O)N[C@@H](CCCNC(=N)N)C(=O)N[C@@H](Cc1ccc(O)cc1)C(=O)NCC(=O)N[C@@H](C)C(=O)N[C@@H](CC(N)=O)C(=O)N[C@H](C(=O)N[C@H](C(=O)N[C@@H](CCSC)C(=O)N[C@@H](CCC(N)=O)C(=O)N[C@@H](CC(N)=O)C(=O)N[C@@H](Cc1c[nH]cn1)C(=O)NCC(N)=O)[C@@H](C)O)C(C)C)C(C)C)[C@@H](C)O [ANK peptide] (Ac-KGNSALHVASQHGHLGCIQTLVRYGANVTMQNHG-NH2) | No binding | 9.00% | 17.6% | 29.2% | 10.3% | 36.0% | 8.80% | 17.4% | 30.0% | 10.0% | 35.4% | 8.70% | 17.3% | 30.4% | 9.90% | 35.0% | ~20% | 
EGFP-ANK: ANK peptide expressed as a fusion protein with its amino-terminal linked to EGFP protein, approximately 37 kDa ({EGFP}-KGNSALHVASQHGHLGCIQTLVRYGANVTMQNHG) |  |  |  |  |  |  |  |  |  |  |  |  |  |  |  |  |  | not detected
